Experimental findings from publication PMC11098465, “A comparative analysis of peptide-delivered antisense antibiotics using diverse nucleotide mimics” (RNA, 2024) are described below.

One data set has as its system Salmonella periplasm. Briefly: MALDI-TOF-based analysis of ASO-peptide conjugate uptake. In kind it is cell-based. More on the design: key to Uptake inside bacteria (MS): +++: Effect strength is represented by additional (+) signs.; ++: Effect strength is represented by additional (+) signs.; Effect strength is represented by additional (+) signs. Conditions: 15 min; for Detection in the periplasmic fraction (in words): 10 µM KFF-ASO conjugates, MALDI MS; for Uptake inside bacteria (MS): ASO conjugated to the carrier peptide, 10 µM, MALDI-TOF of periplasm, summary grade. The procedure:
Finally, to directly test if the ASO conjugates translocate into Salmonella, we used MALDI mass-spectrometry (MS) to identify ASO fragments in the bacterial periplasm after treatment with 10 µM KFF-ASO conjugates for 15 min (Table 2; Supplemental Figs. S7 and S8). […] This is in line with a study that reported that the KFF peptide is cleaved within the periplasm before translocation into the cytoplasm ([Yavari et al. 2021]). […] Importantly, none of the negASOs were detected in this subcellular fraction (Supplemental Fig. S8), likely explaining the lack of antibacterial effects against Salmonella.
The experiments were performed by modifying previously published protocols ([Yavari et al. 2021]). From an overnight culture of Salmonella, a second culture was inoculated (1:100) and grown to OD600 of 0.5 (corresponding to ∼2 × 10^8 cfu/mL). These bacterial cells were washed twice in MHB and resuspended in 95 µL of MHB with an additional incubation at 37°C for 5–10 min. Sterile ASO-peptide conjugates were prepared at concentrations of 200 µM. Five microliters of the 200 µM working solutions were added to 95 µL of bacteria in culture media, leading to a final concentration of the compounds of 10 µM. Five microliters of H2O was added as a negative control. The tubes were incubated at 37°C for 15 min with shaking at 300 rpm. Subsequently, they were centrifuged at 8000g for 5 min at 4°C. The supernatant was aspirated, and the pellet was washed with 0.01 M Tris-HCl before being resuspended in 200 µL of 0.01M Tris-HCl containing 0.5 M Sucrose, 150 µg/mL lysozyme, 10 mM EDTA and incubated at 37°C overnight. These tubes were then centrifuged at 2000g at 4°C for 10 min. The supernatant obtained represents the periplasm. The periplasm fragment was then mixed with 2,6-Dihydroxyacetophenone (DHAP) in ACN 1:1, spotted on a MALDI plate, and analyzed for MALDI-TOF-MS in a Bruker DaltonicsUltrafleXtreme Instrument. The experiment was performed two times, and data of one representative experiment are shown.

A further data set deals with AcpP::3xFLAG. Briefly: Western blot of AcpP::3xFLAG protein levels after ASO treatment. Particulars: for AcpP protein levels after treatment (in words): KFF-ASO 5 µM, 30, 60, 120 min; for AcpP protein reduction: KFF-ASO constructs at 5 µM, 120 min, summary grade. The class given is cell-based, Salmonella enterica serovar Typhimurium SL1344 AcpP::3xFLAG. Further details: key to AcpP protein reduction: +++: Effect strength is represented by additional (+) signs.; ++: Effect strength is represented by additional (+) signs.; Effect strength is represented by additional (+) signs. An excerpt: We have previously shown that PNAs targeting acpP lead to rapid depletion of the target transcript ([Hör et al. 2022]; [Popella et al. 2022]; [Jung et al. 2023]), although this is not a universal phenomenon and varies from transcript to transcript ([Popella et al. 2022]). In other words, an ASO might block target protein synthesis without substantially impacting mRNA levels. Therefore, we wanted to test if the different ASO modalities affect AcpP protein levels in cellulo despite their inability to deplete the acpP transcript. We took advantage of Salmonella expressing a FLAG-tagged AcpP (AcpP::3xFLAG) protein from its native locus. First, we exposed the bacterial cells to PMO and PNA for 30, 60, or 120 min (Fig. 9A) to determine the best time point for our analysis.
Salmonella WT and SL1344 AcpP::3xFLAG were grown overnight in noncation adjusted MHB. Bacterial cultures were diluted 1:100, grown to OD600 0.5, and subsequently diluted to ∼10^6 cfu/mL in MHB. Then, 1.9 mL of each diluted bacterial solution was transferred into 5 mL low-binding tubes, preincubated at 37°C for 10 min, and treated with 100 µL of ASOs to adjust a final concentration of 5 µM. Water was added as negative control. The treatment with PNA and PMO was performed with aeration at 37°C and 220 rpm shaking for 30, 60, and 120 while for all other ASOs, they were treated for 120 min only. Subsequently, the cells were collected by centrifugation at 4°C and 16,000g for 5 min, resuspended in 1× Protein Loading Buffer (62.6 mM Tris–HCl pH 6.8, 2% SDS, 0.1 mg/mL bromophenol blue, 15.4 mg/mL DTT, 10% glycerol) and denatured at 95°C for 10 min.
For detection of AcpP::3xFLAG protein levels, samples were separated on a 12% SDS-PAA gel and transferred onto a nitrocellulose membrane via semi-dry western blotting. The membrane was probed with an α-FLAG antibody (Sigma; 1:1000 in 1× TBS-T containing 3% BSA) at 4°C overnight. After washing in 1× TBS-T, the membrane was incubated with a secondary HRP-conjugated antimouse antibody (Thermo Scientific; 1:5000 in 1× TBS-T containing 1% BSA) at RT for 1 h. Excessive antibody was removed by repeated wash-steps in 1× TBS-T, and the membrane was developed by an Amersham ECL Select Western Blotting Detection Reagent Kit (Cytiva).
(In general: In western blotting, separated proteins are transferred to a membrane and probed.)

In the case of “PNA: peptide nucleic acid 10mer ASO, sequence CTCATACTCT, targeting acpP −5 to +5 (all peptide nucleic acid (PNA))”, in the data set with Salmonella periplasm, the “Detection in the periplasmic fraction (in words)” value is “detected in the periplasmic fraction” and the “Uptake inside bacteria (MS)” value is given as “+”. In the data set with AcpP::3xFLAG, the “AcpP protein levels after treatment (in words)” value is on record as “depletion in AcpP levels can be observed from 60 min post-treatment onward” and the AcpP protein reduction entry is “++”.
Consider “PMO: phosphorodiamidate morpholino 10mer ASO, sequence CTCATACTCT, targeting acpP −5 to +5 (all phosphorodiamidate morpholino (PMO))”, for which, in the data set on Salmonella periplasm, the “Detection in the periplasmic fraction (in words)” value is “detected in the periplasmic fraction” and the “Uptake inside bacteria (MS)” value is “+”. In addition, in the data set with Salmonella periplasm (periplasm, 10 µM KFF-ASO conjugate, MALDI-TOF-MS), the Fragments detected result was “only the PMO fragment was observed in the periplasm”. In the data set on AcpP::3xFLAG, the “AcpP protein levels after treatment (in words)” value is given as “gradual depletion of AcpP, albeit less pronounced than PNA” and the AcpP protein reduction entry is listed as “+”.
